Consider three molecules from paper PMC11180795 (Frontiers in Pharmacology, 2024).

Each structure is given as a SMILES string.

Holding throughout (type): cell-based, Murine
One assay concerns the target T1, COX-1 (Mus musculus, UniProt P22437).
T1 construct: The cell lysate was centrifuged at 12000 x g for 3 min and the supernatant was collected for COX activity assay; endogenous in cells
T1 sequence (P22437 27-602): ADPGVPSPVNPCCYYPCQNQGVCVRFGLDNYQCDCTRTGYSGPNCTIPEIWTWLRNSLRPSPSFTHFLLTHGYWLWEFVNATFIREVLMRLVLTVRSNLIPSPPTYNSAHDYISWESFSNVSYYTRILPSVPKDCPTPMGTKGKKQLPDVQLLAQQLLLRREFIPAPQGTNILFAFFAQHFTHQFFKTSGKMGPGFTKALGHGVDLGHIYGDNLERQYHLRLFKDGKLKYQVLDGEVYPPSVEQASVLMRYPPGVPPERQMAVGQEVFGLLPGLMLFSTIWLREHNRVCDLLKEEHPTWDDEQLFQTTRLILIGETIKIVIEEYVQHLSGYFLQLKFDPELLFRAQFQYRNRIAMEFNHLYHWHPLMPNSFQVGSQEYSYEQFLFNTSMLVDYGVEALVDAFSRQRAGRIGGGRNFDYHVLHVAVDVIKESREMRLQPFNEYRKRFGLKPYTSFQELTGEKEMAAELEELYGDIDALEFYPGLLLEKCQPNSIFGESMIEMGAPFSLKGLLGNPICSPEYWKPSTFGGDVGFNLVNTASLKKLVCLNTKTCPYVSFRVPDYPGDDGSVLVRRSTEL
The assay can be described thus: Fluorometric COX activity assay in lysate of LPS-treated Raw 264.7 cells, COX-1. The settings on record: compound at 20 µM, LPS 0.1 μg/mL, 24 h; untreated control 85.19 µU/mg. How it is done:
The fluorometric cyclooxygenase activity assay kit (Biovision) was used to evaluate the activity of COX-1 and COX-2 enzymes. Raw 264.7 cells were seeded at 2 × 10^5 cells/mL in a 48-well microplate, and allowed to adhere for 24 h, then treated with LPS 0.1 μg/mL and compounds (1), (5) and (6) at 20 µM against Raw 264.7 cells. After 24 h the cyclooxygenase enzyme (COX-1 and COX-2) activity assay was performed. Cells were detached with TNE buffer (Tris 40 mM, NaCl 150 mM, EDTA 1 mM) and washed with PBS (1x), then re-suspended in 1 mL PBS (1x), transferred into 1.5 mL tube, and centrifuged at 500 x g for 3 min. The pellet was then re-suspended in 0.5 mL of lysis buffer with a protease inhibitor cocktail, vortexed, and incubated at 4°C for 5 min. The cell lysate was centrifuged at 12000 x g for 3 min and the supernatant was collected for COX activity assay. The COX activity was assessed using the fluorometric cyclooxygenase activity assay kit (Biovision) following the manufacturer’s instructions. The assay includes COX-1 and COX-2 specific inhibitors to differentiate the activity of COX-1 and COX-2 as well as other peroxidases. Indomethacin (10 µM) was used as a standard drug and appropriate controls were also included.

The subject of a further assay is IL-6. Description: Th1/Th2 cytokine measurement (Cytometric Bead Array) in LPS-stimulated Raw 264.7 cells, IL-6. The following applies: compound at 20 µM, LPS 0.1 μg/mL, 24 h; stimulated untreated control 175.96 pg/mL. The procedure: (§1) Raw 264.7 cells were seeded at 2 × 10^5 cells/mL in a 48-well microplate and allowed to adhere for 24 h, then treated with LPS 0.1 μg/mL and with compounds (1), (5) and (6) at 20 µM. Untreated cells and indomethacin (10 µM) were used as controls. After 24 h of incubation, the supernatant was collected and the amount of pro-inflammatory Th1 cytokines (IFN-γ, TNF-α, and IL-2) and anti-inflammatory Th2 cytokines (IL-4, IL-6, and IL-10) released measured. The experiment was performed according to the manufacturer’s instructions using BD™ Cytometric Bead Array (CBA) […] Th1/Th2 Cytokine Kit (BD-Biosciences), and data were acquired on a BD LSR Fortessa™ cell analyzer flow cytometer.

In the next assay the test system is IL-2. Description: Th1/Th2 cytokine measurement (Cytometric Bead Array) in LPS-stimulated Raw 264.7 cells, IL-2. The following applies: compound at 20 µM, vs stimulated and untreated control. The procedure: as §1

As to `CC(C)=CCc1c2c(c3oc4c(O)cccc4c(=O)c3c1O)C=CC(C)(C)O2` [Compound 1, Ananixanthone], the COX-1 activity on COX-1 is on record as 52.55 µU/mg. Moreover, the IL-6 level in the assay with IL-6 turned out to be 144.25 pg/mL. In the case of `CC(C)=CCC/C(C)=C/C[C@]12C[C@@H](CC=C(C)C)C(C)(C)[C@](C/C=C(\C)CCC=C(C)C)(C(=O)C(C(=O)c3ccc(O)c(O)c3)=C1O)C2=O` [Compound 5, Guttiferone O], on COX-1, the COX-1 activity was 32.28 µU/mg. In the assay on IL-2, the “effect on IL-2 production (in words)” value is “significantly reduces”.

In the case of `CC(C)=CCC/C(C)=C/C[C@]12C[C@@H](CC=C(C)C)C(C)(C)[C@](CC=C(C)C)(C(=O)C(C(=O)c3ccc(O)c(O)c3)=C1O)C2=O` [Compound 6, Guttiferone M], in the assay on IL-2, the “effect on IL-2 production (in words)” value is listed as “limited effect”.
